Data as given in US20090253634A1, “Methods and Compositions for the Treatment of Gastrointestinal Disorders” (MICROBIA, INC., priority 2005, published 2009).
pKd: −log10 of the molar value. Ends that are not written are not given here.

Experiments:
[1] = molecular target: T1, intestinal GC-C receptor (Homo sapiens, UniProt P25092); assay: GC-C receptor activity assay (cyclic GMP) in T84 cells; format: cell-based; settings: chemically synthesized peptides, cyclic GMP by EIA
T1 construct: monolayers of T84 cells in 24-well plates; host or cells: T84 human colon carcinoma cells
Method: The ability of SEQ ID NO:5, SEQ ID NO:4, SEQ ID NO:3, and SEQ ID NO:6 to activate the intestinal GC-C receptor was assessed in an assay employing the T84 human colon carcinoma cell line (American Type Culture Collection (Bethesda, Md.)). For the assays cells were grown to confluency in 24-well culture plates with a 1:1 mixture of Ham's F12 medium and Dulbecco's modified Eagle's medium (DMEM), supplemented with 5% fetal calf serum and were used at between passages 54 and 60.
Briefly, monolayers of T84 cells in 24-well plates were washed twice with 1 ml/well DMEM, then incubated at 37° C. for 10 min with 0.45 ml DMEM containing 1 mM isobutylmethylxanthine (IBMX), a cyclic nucleotide phosphodiesterase inhibitor, Test peptides (50 μl) were then added and incubated for 30 minutes at 37° C. The media was aspirated and the reaction was then terminated by the addition of ice cold 0.5 ml of 0.1N HCl. The samples were held on ice for 20 minutes and then evaporated to dryness using a heat gun or vacuum centrifugation.

[2] = test system: gastrointestinal transit; assay: murine gastrointestinal transit (GIT) assay, acute and chronic dosing; format: in vivo, mice; settings: for gastrointestinal transit rate: oral, SEQ ID NO:4 and Zelnorm 0.1 mg/kg, FIG. 3a, 3b; for intestinal transit rate, dose dependence: recombinantly synthesized peptides, FIG. 4a
Method: In order to determine whether the peptides increase the rate of gastrointestinal transit, the peptides and controls were tested using a murine gastrointestinal transit (GIT) assay (Moon et al. Infection and Immunity 25:127, 1979). In this assay, charcoal, which can be readily visualized in the gastrointestinal tract is administered to mice after the administration of a test compound. The distance traveled by the charcoal is measured and expressed as a percentage of the total length of the […].
Mice were fasted with free access to water for 12 to 16 hours before the treatment with peptide or control buffer. The peptides were orally administered at 1 μg/kg-1 mg/kg of peptide in buffer ([…] pH 7.5) 7 minutes before being given an oral dose of 5% Activated Carbon (Aldrich 242276-250G). Control mice were administered buffer only before being given a dose of Activated Carbon. After 15 minutes, the mice were sacrificed and their intestines from the stomach to the cecum were dissected. The total length of the intestine as well as the distance traveled from the stomach to the charcoal front was measured for each animal and the results are expressed as the percent of the total length of the intestine traveled by the charcoal front. All results are reported as the average of 10 mice±standard deviation. A comparison of the distance traveled by the charcoal between the mice treated with peptide versus the mice treated with vehicle alone was performed using a Student's t test and a statistically significant difference was considered for P<0.05. P-values are calculated using a two-sided T-Test assuming unequal variances.
The identical experiment was performed to determine if SEQ ID NO:3 is effective in a chronic dosing treatment regimen. Briefly, 8 week old CD1 female mice are dosed orally once a day for 5 days with either SEQ ID NO:3 (0.06 mg/kg or 0.25 mg/kg in 20 mM Tris pH 7.5) or vehicle alone (20 mM Tris pH 7.5). On the 5th day, a GIT assay is performed identical to that above except 200 μl of a 10% charcoal solution is administered. […] The results are shown side by side with acute dosing (1 day).

[3] = test system: intestinal secretion; assay: suckling mouse model of intestinal secretion (SuMi assay); format: in vivo, suckling mice
Method: In this model a test compound is administered to suckling mice that are between 7 and 9 days old. After the mice are sacrificed, the gastrointestinal tract from the stomach to the cecum is dissected (“guts”). The remains (“carcass”) as well as the guts are weighed and the ratio of guts to carcass weight is calculated. If the ratio is above 0.09, one can conclude that the test compound increases intestinal secretion. […] The effect of Zelnorm® was also studied.

[4] = molecular target: T2, GC-C receptors found in rat intestinal mucosa (Rattus norvegicus, UniProt P23897); settings: same assay, observed by Giannella et al.; cited from earlier work
T2 construct: Epithelial cells from the small intestine of rats were obtained; from tissue; host or cells: rat small-intestinal mucosa / epithelial cell suspension
T2 sequence (P23897 23-1072): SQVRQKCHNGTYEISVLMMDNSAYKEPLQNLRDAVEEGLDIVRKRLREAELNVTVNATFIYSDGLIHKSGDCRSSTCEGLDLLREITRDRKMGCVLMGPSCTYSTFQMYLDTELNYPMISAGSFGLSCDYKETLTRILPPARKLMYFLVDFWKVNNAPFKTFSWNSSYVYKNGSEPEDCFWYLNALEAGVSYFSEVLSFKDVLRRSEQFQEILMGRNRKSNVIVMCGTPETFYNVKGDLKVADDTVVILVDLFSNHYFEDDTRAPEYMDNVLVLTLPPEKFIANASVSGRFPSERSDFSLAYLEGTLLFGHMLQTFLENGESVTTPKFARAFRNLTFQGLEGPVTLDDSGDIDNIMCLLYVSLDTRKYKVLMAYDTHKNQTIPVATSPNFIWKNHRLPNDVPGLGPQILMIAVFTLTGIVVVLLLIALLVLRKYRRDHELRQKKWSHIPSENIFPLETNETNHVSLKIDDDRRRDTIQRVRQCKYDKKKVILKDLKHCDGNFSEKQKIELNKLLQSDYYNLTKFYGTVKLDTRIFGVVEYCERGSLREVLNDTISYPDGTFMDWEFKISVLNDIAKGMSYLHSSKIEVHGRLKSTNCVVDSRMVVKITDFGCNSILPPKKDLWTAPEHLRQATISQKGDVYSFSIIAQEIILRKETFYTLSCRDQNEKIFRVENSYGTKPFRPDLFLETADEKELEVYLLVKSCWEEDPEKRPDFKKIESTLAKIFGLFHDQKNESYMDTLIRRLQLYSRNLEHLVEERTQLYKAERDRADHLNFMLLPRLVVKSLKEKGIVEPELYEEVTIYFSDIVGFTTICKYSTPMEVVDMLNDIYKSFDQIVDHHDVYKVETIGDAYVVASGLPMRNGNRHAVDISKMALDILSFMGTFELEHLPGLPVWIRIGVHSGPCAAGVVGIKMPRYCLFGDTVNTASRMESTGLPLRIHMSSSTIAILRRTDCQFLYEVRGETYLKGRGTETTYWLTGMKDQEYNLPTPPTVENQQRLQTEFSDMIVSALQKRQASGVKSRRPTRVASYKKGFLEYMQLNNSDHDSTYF

[5] = test system: PBQ-induced writhing; assay: phenylbenzoquinone (PBQ)-induced writhing model
[6] = recombinant peptides, dose response, FIG. 6a

T1 sequence (P25092 24-1073): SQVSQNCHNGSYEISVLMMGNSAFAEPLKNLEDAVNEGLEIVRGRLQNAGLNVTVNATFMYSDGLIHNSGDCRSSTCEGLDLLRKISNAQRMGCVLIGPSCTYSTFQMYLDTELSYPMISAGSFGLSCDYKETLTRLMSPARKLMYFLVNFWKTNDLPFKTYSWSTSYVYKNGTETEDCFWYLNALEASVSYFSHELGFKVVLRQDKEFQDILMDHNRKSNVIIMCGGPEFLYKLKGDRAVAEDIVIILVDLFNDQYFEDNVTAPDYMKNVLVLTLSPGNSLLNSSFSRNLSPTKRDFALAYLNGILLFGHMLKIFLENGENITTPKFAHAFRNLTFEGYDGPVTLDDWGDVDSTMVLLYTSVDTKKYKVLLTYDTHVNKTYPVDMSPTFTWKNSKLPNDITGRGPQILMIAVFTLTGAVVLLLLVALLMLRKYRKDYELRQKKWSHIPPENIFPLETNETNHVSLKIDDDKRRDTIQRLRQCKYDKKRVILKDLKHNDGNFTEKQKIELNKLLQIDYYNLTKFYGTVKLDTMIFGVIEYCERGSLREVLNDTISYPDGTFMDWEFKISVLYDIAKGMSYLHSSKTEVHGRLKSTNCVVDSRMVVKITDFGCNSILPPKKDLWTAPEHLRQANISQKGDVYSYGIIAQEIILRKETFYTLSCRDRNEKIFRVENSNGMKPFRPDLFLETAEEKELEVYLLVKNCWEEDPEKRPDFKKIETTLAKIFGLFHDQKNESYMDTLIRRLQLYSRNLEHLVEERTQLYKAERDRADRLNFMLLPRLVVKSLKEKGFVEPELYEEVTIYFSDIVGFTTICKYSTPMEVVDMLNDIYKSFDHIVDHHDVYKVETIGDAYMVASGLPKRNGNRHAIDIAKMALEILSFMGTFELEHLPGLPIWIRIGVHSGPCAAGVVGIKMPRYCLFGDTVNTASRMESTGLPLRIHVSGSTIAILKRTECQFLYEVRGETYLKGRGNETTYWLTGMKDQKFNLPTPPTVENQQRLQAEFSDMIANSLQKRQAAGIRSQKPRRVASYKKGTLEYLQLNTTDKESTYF

Compound	activity in GC-C receptor activity assay [1]	intestinal transit rates versus Tris buffer or equivalent dose of Zelnorm ([2]; acute, chemically synthesized peptides, FIG. 4b)	gastrointestinal transit rate ([2]; acute)	intestinal transit rate, dose dependence ([2]; acute)	intestinal secretion (guts to carcass weight ratio) ([3]; dose response, wild-type ST purchased from TDT, FIG. 5a, 5b)	intestinal secretion (guts to carcass weight ratio) [3, 6]	pKd [4]	writhings versus vehicle control ([5]; 1 mg/kg dose, oral)	antinociceptive effect compared with indomethacin ([5]; PBQ writhing assay)	effect in mouse gastrointestinal motility assay upon chronic dosing ([2]; oral once a day for 5 days, SEQ ID NO:3 0.06 or 0.25 mg/kg, FIG. 4c)	intestinal secretion (guts to carcass weight ratio) ([3]; 0.2 mg/kg)
NSSNYCCELCCNPACTGCY [SEQ ID NO:4]	activity comparable to SEQ ID NO:4	increase intestinal transit rates more than either Tris buffer alone or an equivalent dose of Zelnorm®	increase gastrointestinal transit rate	increases with an increasing dosage	increase intestinal secretion	increase intestinal secretion	~7.89				
NSSNYCCEYCCNPACTGCY (cysteine pairing not given here) [SEQ ID NO:5]				increases with an increasing dosage		increase intestinal secretion		Significant reductions in writhings	antinociceptive effects in this visceral pain model comparable to the intermediate doses of indomethacin		
[H]/N=C(/NCCCCC)N/N=C/c1c[nH]c2ccc(OC)cc12 [Zelnorm®, tegaserod]			increase gastrointestinal transit rate							effective	does not increase intestinal secretion
